Data as given in ChEMBL document CHEMBL4414548 (J Med Chem, 2019).

What was measured:
[1] = Cmax in Balb/c mouse assessed as 6-((5-Fluoropyridin-2-yl)amino)-4-((2-(methylsulfonyl)phenyl)amino)nicotinamide level at 10 mg/kg, po after 0.05 hrs; format: ADME, organism-based; set-up: dose 10 mg/kg, route oral; details: in vivo
[2] = Cmax in Balb/c mouse assessed as 6-((5-Fluoropyridin-2-yl)amino)-4-((2-(methylsulfonyl)phenyl)amino)nicotinamide level at 3 mg/kg, iv after 7 hrs; format: ADME, organism-based; set-up: dose 3 mg/kg, route intravenous; details: in vivo
[3] = Volume of distribution at steady state in Balb/c mouse at 3 mg/kg, iv; format: ADME, organism-based; details: in vivo, read-out: Vdss
[4] = Half life in cynomolgus monkey liver microsomes; format: ADME, Macaca fascicularis, Microsome
[5] = Half life in dog liver microsomes; format: ADME, Canis lupus familiaris, Microsome
[6] = AUClast in mouse at 10 mg/kg, po after 7 hrs; format: ADME, organism-based; set-up: time < 7 hr, dose 10 mg/kg, route oral; details: in vivo
[7] = Drug concentration in Balb/c mouse at 3 mg/kg, iv after 7 hrs; format: ADME, organism-based; details: in vivo, read-out: Drug uptake
[8] = AUClast in Balb/c mouse at 3 mg/kg, iv; format: ADME, organism-based; set-up: dose 3 mg/kg, route intravenous, time 0 - last; details: in vivo
[9] = target: JAK2/TYK2 (Homo sapiens, UniProt O60674+P29597); assay: Inhibition of TYK2/JAK2 in IL23-stimulated human Kit225 cells by steady-glo luciferase assay
[10] = Drug concentration in Balb/c mouse at 3 mg/kg, iv after 3 hrs; format: ADME, organism-based; details: in vivo, read-out: Drug uptake
[11] = Drug concentration in Balb/c mouse at 10 mg/kg, po after 7 hrs; format: ADME, organism-based; details: in vivo, read-out: Drug uptake
[12] = Drug concentration in Balb/c mouse at 3 mg/kg, iv after 0.05 hrs; format: ADME, organism-based; details: in vivo, read-out: Drug uptake
[13] = Half life in human liver microsomes; format: ADME, Microsome
[14] = Half life in mouse liver microsomes; format: ADME, Microsome
[15] = Drug concentration in Balb/c mouse at 10 mg/kg, po after 3 hrs; format: ADME, organism-based; details: in vivo, read-out: Drug uptake
[16] = Cmax in Balb/c mouse assessed as 6-((5-Fluoropyridin-2-yl)amino)-4-((2-(methylsulfonyl)phenyl)amino)nicotinamide level at 3 mg/kg, iv after 0.05 hrs; format: ADME, organism-based; set-up: dose 3 mg/kg, route intravenous; details: in vivo
[17] = Cmax in Balb/c mouse assessed as 6-((5-Fluoropyridin-2-yl)amino)-4-((2-(methylsulfonyl)phenyl)amino)nicotinamide level at 3 mg/kg, iv after 1 hr; format: ADME, organism-based; set-up: dose 3 mg/kg, route intravenous; details: in vivo
[18] = Cmax in Balb/c mouse assessed as 6-((5-Fluoropyridin-2-yl)amino)-4-((2-(methylsulfonyl)phenyl)amino)nicotinamide level at 10 mg/kg, po after 0.5 hrs; format: ADME, organism-based; set-up: dose 10 mg/kg, route oral; details: in vivo
[19] = target: Tyrosine-protein kinase JAK2 (Homo sapiens, UniProt O60674); assay: Inhibition of JAK2 JH1 domain (unknown origin)
[20] = target: T1, Non-receptor tyrosine-protein kinase TYK2 (Homo sapiens, UniProt P29597); assay: Inhibition of fluorescein-labeled kinase tracer binding to His-TVMV-fused TYK2 JH2 domain (575 to 869 residues) (unknown origin) measured after 90 mins by HTRF assay
[21] = target: JAK1/TYK2 (Homo sapiens, UniProt P23458+P29597); assay: Inhibition of TYK2/JAK1 in IFNalpha-stimulated human Kit225 cells by steady-glo luciferase assay
[22] = target: T1, Non-receptor tyrosine-protein kinase TYK2; assay: Inhibition of TYK2 JH1 domain (unknown origin)
[23] = Clearance in Balb/c mouse at 3 mg/kg, iv; format: ADME, organism-based; details: in vivo
[24] = Drug concentration in Balb/c mouse at 3 mg/kg, iv after 1 hr; format: ADME, organism-based; details: in vivo, read-out: Drug uptake
[25] = target: JAK3/JAK1 (Homo sapiens, UniProt P23458+P52333); assay: Inhibition of JAK1/JAK3 (unknown origin) in IL-2 stimulated cells by cell based assay
[26] = Drug concentration in Balb/c mouse at 10 mg/kg, po after 0.05 hrs; format: ADME, organism-based; details: in vivo, read-out: Drug uptake
[27] = Cmax in Balb/c mouse assessed as 6-((5-Fluoropyridin-2-yl)amino)-4-((2-(methylsulfonyl)phenyl)amino)nicotinamide level at 10 mg/kg, po after 7 hrs; format: ADME, organism-based; set-up: dose 10 mg/kg, route oral; details: in vivo
[28] = Drug concentration in Balb/c mouse at 10 mg/kg, po after 1 hr; format: ADME, organism-based; details: in vivo, read-out: Drug uptake
[29] = Permeability across apical to basolateral side in human Caco2 cells; format: ADME, cell-based; details: Caco-2, read-out: permeability
[30] = Cmax in Balb/c mouse assessed as 6-((5-Fluoropyridin-2-yl)amino)-4-((2-(methylsulfonyl)phenyl)amino)nicotinamide level at 10 mg/kg, po after 5 hrs; format: ADME, organism-based; set-up: dose 10 mg/kg, route oral; details: in vivo
[31] = target: Non-receptor tyrosine-protein kinase TYK2 (Mus musculus, UniProt Q9R117); assay: Inhibition of TYK2 JH2 domain in mouse whole blood assessed as inhibition of IFNalpha-induced STAT1 phosphorylation preincubated for 1 hr followed by IFNalpha stimulation and measured after 15 mins by fluorescence assay; format: tissue-based
[32] = Drug concentration in Balb/c mouse at 3 mg/kg, iv after 5 hrs; format: ADME, organism-based; details: in vivo, read-out: Drug uptake
[33] = Metabolic stability in rat liver microsomes assessed as parent compound remaining after 10 mins; format: ADME, Microsome; details: read-out: Stability
[34] = Unbound drug level in rabbit at 1 to 10 mg/kg, iv; format: ADME, organism-based, Oryctolagus cuniculus; details: in vivo
[35] = AUClast in Balb/c mouse at 10 mg/kg, po; format: ADME, organism-based; set-up: dose 10 mg/kg, time 0 - last, route oral; details: in vivo
[36] = Drug concentration in Balb/c mouse at 10 mg/kg, po after 0.5 hrs; format: ADME, organism-based; details: in vivo, read-out: Drug uptake
[37] = Cmax in Balb/c mouse assessed as 6-((5-Fluoropyridin-2-yl)amino)-4-((2-(methylsulfonyl)phenyl)amino)nicotinamide level at 3 mg/kg, iv after 3 hrs; format: ADME, organism-based; set-up: dose 3 mg/kg, route intravenous; details: in vivo
[38] = Metabolic stability in mouse liver microsomes assessed as parent compound remaining after 10 mins; format: ADME, Microsome; details: read-out: Stability
[39] = Cmax in Balb/c mouse assessed as 6-((5-Fluoropyridin-2-yl)amino)-4-((2-(methylsulfonyl)phenyl)amino)nicotinamide level at 3 mg/kg, iv after 0.5 hrs; format: ADME, organism-based; set-up: dose 3 mg/kg, route intravenous; details: in vivo
[40] = Drug concentration in Balb/c mouse at 3 mg/kg, iv after 0.5 hrs; format: ADME, organism-based; details: in vivo, read-out: Drug uptake
[41] = Cmax in Balb/c mouse assessed as 6-((5-Fluoropyridin-2-yl)amino)-4-((2-(methylsulfonyl)phenyl)amino)nicotinamide level at 10 mg/kg, po after 1 hr; format: ADME, organism-based; set-up: dose 10 mg/kg, route oral; details: in vivo
[42] = target: JAK2/JAK1 (Homo sapiens, UniProt O60674+P23458); assay: Inhibition of JAK1/JAK2 (unknown origin) in GM-CSF stimulated cells by cell based assay
[43] = Drug concentration in Balb/c mouse at 10 mg/kg, po after 5 hrs; format: ADME, organism-based; details: in vivo, read-out: Drug uptake
[44] = Half life in rat liver microsomes; format: ADME, Microsome
[45] = Cmax in Balb/c mouse assessed as 6-((5-Fluoropyridin-2-yl)amino)-4-((2-(methylsulfonyl)phenyl)amino)nicotinamide level at 10 mg/kg, po after 3 hrs; format: ADME, organism-based; set-up: dose 10 mg/kg, route oral; details: in vivo
[46] = Efflux ratio of permeability in human Caco2; format: ADME, cell-based; details: Caco-2
[47] = target: Tyrosine-protein kinase JAK1 (Homo sapiens, UniProt P23458); assay: Inhibition of JAK1 JH1 domain (unknown origin)
[48] = Half life in Balb/c mouse at 3 mg/kg, iv; format: ADME, organism-based; details: in vivo
[49] = Cmax in mouse at 10 mg/kg, po after 7 hrs; format: ADME, organism-based; set-up: dose 10 mg/kg, route oral; details: in vivo
[50] = Cmax in Balb/c mouse assessed as 6-((5-Fluoropyridin-2-yl)amino)-4-((2-(methylsulfonyl)phenyl)amino)nicotinamide level at 3 mg/kg, iv after 5 hrs; format: ADME, organism-based; set-up: dose 3 mg/kg, route intravenous; details: in vivo
[51] = Metabolic stability in human liver microsomes assessed as parent compound remaining after 10 mins; format: ADME, Microsome; details: read-out: Stability
[52] = Cmax in anesthetized rabbit at 1 to 10 mg/kg, iv; format: ADME, organism-based, Oryctolagus cuniculus; details: in vivo
[53] = target: T1, Non-receptor tyrosine-protein kinase TYK2; assay: Inhibition of TYK2 JH2 domain in human whole blood assessed as inhibition of IFNalpha-induced STAT5 phosphorylation preincubated for 1 hr followed by IFNalpha stimulation and measured after 15 mins by fluorescence assay; format: tissue-based

T1 sequence (P29597 whole entry, the tested form may be a part): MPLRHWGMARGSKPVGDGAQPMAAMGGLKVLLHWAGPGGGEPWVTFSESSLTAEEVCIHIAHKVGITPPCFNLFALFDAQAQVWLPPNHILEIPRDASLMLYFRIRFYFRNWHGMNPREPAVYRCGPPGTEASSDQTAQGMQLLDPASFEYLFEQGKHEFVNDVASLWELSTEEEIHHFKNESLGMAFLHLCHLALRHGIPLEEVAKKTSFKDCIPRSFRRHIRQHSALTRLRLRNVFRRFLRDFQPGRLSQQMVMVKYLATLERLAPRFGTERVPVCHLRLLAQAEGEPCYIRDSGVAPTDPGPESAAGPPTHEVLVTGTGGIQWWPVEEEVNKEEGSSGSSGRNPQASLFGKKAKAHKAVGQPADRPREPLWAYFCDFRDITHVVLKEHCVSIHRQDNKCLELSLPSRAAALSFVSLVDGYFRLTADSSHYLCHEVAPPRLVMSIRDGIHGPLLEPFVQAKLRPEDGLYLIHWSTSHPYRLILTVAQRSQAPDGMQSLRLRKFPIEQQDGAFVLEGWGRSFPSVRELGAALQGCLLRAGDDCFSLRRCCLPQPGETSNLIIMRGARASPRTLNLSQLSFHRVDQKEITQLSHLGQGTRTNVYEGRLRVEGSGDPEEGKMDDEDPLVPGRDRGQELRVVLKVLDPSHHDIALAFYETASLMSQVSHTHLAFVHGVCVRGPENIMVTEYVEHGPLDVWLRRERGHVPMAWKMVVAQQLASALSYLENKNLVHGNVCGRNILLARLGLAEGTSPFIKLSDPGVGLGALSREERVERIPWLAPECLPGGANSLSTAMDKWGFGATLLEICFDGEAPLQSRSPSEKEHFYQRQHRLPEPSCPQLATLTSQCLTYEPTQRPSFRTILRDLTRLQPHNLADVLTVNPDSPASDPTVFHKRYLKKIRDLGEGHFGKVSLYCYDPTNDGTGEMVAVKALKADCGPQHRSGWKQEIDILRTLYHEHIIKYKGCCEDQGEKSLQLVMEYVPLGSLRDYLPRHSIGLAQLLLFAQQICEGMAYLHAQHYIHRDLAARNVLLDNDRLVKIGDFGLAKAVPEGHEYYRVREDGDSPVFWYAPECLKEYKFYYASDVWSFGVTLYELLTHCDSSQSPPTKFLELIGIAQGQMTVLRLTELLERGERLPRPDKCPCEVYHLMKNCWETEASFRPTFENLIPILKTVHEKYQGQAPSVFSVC
Sequence of JAK2/TYK2 (O60674 whole entry): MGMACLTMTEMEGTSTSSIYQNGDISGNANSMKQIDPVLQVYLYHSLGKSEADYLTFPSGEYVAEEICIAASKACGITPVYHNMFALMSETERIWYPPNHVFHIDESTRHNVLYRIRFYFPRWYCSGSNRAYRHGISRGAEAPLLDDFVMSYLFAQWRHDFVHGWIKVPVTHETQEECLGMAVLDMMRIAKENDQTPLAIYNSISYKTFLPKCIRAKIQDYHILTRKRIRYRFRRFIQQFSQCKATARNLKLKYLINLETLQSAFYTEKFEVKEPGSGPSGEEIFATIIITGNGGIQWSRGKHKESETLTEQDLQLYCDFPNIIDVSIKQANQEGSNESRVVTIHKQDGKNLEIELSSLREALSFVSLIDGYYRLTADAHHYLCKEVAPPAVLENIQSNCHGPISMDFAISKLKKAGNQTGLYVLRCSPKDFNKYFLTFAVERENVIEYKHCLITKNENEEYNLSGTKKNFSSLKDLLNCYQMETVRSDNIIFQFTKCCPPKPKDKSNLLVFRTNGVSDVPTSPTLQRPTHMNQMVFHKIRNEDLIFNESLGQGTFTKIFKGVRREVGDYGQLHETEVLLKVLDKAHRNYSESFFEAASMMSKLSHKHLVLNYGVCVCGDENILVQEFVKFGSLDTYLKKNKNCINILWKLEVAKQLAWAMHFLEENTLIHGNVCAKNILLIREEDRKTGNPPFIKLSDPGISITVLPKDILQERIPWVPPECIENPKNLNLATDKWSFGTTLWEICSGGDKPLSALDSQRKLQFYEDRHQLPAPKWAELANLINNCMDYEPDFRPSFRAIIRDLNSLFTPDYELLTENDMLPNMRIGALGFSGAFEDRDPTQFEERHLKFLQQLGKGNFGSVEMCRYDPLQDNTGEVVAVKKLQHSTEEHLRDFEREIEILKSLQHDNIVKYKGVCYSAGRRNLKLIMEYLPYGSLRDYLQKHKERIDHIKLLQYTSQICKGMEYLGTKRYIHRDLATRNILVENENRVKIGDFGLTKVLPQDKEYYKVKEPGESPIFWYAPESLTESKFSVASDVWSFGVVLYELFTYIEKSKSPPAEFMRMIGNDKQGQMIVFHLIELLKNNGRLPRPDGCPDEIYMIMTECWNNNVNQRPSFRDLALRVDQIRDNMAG
Sequence of JAK2/TYK2 (P29597 whole entry): as the sequence (P29597 whole entry, the tested form may be a part) above
Sequence of Tyrosine-protein kinase JAK2 (O60674 whole entry, the tested form may be a part): as the sequence (O60674 whole entry) above
Sequence of JAK3/JAK1 (P52333 whole entry): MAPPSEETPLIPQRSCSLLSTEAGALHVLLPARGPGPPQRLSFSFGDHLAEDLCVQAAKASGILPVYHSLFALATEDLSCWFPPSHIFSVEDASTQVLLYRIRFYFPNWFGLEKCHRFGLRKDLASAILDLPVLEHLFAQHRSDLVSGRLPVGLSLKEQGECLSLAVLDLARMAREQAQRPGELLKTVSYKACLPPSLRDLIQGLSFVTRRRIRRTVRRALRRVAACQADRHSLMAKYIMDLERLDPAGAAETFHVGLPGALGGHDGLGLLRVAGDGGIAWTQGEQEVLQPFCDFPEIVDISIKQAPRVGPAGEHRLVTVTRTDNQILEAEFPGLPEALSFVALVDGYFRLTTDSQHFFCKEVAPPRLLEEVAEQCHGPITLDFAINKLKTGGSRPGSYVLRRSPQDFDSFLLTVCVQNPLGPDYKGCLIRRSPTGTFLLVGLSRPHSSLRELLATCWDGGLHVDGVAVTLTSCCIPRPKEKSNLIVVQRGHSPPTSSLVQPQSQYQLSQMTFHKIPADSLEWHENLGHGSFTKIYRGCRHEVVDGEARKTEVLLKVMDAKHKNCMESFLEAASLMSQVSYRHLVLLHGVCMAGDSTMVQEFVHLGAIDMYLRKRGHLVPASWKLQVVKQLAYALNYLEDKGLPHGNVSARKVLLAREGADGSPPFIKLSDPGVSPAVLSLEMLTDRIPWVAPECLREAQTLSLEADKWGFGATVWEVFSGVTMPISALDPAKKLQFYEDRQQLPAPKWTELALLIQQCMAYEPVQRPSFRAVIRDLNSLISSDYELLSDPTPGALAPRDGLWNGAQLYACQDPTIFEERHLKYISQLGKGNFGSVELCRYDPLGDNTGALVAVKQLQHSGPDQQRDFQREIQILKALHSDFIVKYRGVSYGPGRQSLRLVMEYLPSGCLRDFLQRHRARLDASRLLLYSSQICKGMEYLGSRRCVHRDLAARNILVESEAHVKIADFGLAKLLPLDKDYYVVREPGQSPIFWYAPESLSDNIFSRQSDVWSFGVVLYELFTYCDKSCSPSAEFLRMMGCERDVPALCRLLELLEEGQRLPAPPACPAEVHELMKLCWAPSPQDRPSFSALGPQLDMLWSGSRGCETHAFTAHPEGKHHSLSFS
Sequence of JAK3/JAK1 (P23458 whole entry): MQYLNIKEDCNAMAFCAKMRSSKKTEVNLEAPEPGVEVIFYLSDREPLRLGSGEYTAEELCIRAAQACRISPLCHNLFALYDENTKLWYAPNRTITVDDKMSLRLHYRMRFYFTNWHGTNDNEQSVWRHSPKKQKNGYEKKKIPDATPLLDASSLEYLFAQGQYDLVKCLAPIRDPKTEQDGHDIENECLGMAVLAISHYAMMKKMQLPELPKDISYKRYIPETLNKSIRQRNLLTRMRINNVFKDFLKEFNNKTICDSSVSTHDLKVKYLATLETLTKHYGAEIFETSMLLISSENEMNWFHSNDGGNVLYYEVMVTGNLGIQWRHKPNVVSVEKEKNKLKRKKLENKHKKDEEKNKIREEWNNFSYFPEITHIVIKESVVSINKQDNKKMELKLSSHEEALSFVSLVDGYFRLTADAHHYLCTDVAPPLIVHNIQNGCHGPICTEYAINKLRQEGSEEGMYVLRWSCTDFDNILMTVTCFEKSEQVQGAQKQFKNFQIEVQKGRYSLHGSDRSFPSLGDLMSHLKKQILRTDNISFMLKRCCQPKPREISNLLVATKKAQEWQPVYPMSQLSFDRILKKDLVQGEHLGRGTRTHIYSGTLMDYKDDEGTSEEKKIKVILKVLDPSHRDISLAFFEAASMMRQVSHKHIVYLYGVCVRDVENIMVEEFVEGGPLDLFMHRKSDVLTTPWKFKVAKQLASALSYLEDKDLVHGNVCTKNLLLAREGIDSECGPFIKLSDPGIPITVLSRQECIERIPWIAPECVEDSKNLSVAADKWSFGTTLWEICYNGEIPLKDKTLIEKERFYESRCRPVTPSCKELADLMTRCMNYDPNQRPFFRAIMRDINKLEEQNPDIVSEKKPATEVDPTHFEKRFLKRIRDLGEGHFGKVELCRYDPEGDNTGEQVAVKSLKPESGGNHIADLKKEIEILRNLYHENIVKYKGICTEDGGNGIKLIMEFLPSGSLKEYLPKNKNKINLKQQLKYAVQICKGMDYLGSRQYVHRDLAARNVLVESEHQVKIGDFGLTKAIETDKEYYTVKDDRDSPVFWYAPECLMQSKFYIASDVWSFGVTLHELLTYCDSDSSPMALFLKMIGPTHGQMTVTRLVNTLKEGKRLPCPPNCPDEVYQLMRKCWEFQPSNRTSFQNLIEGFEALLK
Sequence of JAK2/JAK1 (P23458 whole entry): as above
Sequence of JAK2/JAK1 (O60674 whole entry): as the sequence (O60674 whole entry) above
Sequence of Tyrosine-protein kinase JAK1 (P23458 whole entry, the tested form may be a part): as the sequence (P23458 whole entry) above
Sequence of JAK1/TYK2 (P23458 whole entry, the tested form may be a part): as the sequence (P23458 whole entry) above
Sequence of JAK1/TYK2 (P29597 whole entry, the tested form may be a part): as the sequence (P29597 whole entry, the tested form may be a part) above

For `[2H]C([2H])([2H])NC(=O)c1cnc(Nc2ccc(F)cn2)cc1Nc1ccccc1S(C)(=O)=O`, the Cmax [1] was 4.9 nM, the Cmax [2] was 4.9 nM and the Vd [3] was 2.7 L/kg. The half-life [4] was 6 min, the half-life [5] was 16 min and the AUC(0-t) at 7 h [6] was 7.83 µM·h. It also gave a concentration at 7 h [7] of 47 nM, an AUC(0-t) [8] of 5 µM·h and an IC50 [9] of 110 nM. It also gave a concentration at 3 h [10] of 470 nM, a concentration at 7 h [11] of 260 nM and a concentration at 0.05 h [12] of 2800 nM. For the same molecule, the half-life [13] was 69 min, the half-life [14] was 35 min and the concentration at 3 h [15] was 1300 nM. It also gave a Cmax [16] of 4.9 nM, a Cmax [17] of 4.9 nM and a Cmax [18] of 4.9 nM. The IC50 [19] was over 50000 nM, the IC50 [20] was 0.49 nM and the IC50 [21] was 53 nM. It also gave an IC50 [22] of over 50000 nM, a clearance [23] of 25 mL/min/kg and a concentration at 1 h [24] of 1500 nM. It also gave an IC50 [25] of over 12500 nM, a concentration at 0.05 h [26] of 750 nM and a Cmax [27] of 4.9 nM. For the same molecule, the concentration at 1 h [28] was 1400 nM, the Papp A→B [29] was 5.8 ×10⁻⁶ cm/s and the Cmax [30] was 4.9 nM. For the same molecule, the IC50 [31] was 600 nM, the concentration at 5 h [32] was 270 nM and the remaining at 10 min [33] was 91%. It also gave a fraction unbound [34] of 0.13, an AUC(0-t) [35] of 7.8 µM·h and a concentration at 0.5 h [36] of 1400 nM. The Cmax [37] was 4.9 nM, the remaining at 10 min [38] was 81% and the Cmax [39] was 4.9 nM. For the same molecule, the concentration at 0.5 h [40] was 2400 nM, the Cmax [41] was 4.9 nM and the IC50 [42] was over 12500 nM. It also gave a concentration at 5 h [43] of 1300 nM, a half-life [44] of 44 min and a Cmax [45] of 4.9 nM. The efflux ratio [46] was 9.3, the IC50 [47] was over 2000 nM and the half-life [48] was 72 min. For the same molecule, the Cmax [49] was 1440 nM, the Cmax [50] was 4.9 nM and the remaining at 10 min [51] was 85%. The Cmax [52] was 20200 nM and the IC50 [53] was 160 nM.
